This is an account of results in publication PMC2843921 (ACS chemical neuroscience, 2010).

Where a name gives a salt, the structure may show the parent alone. Non-standard residues stand in square brackets, D forms with d. Residues, ends and D or L forms follow the SMILES beside them. *: point of attachment. Dmt = Cc1cc(O)cc(C)c1C[C@H](N)C(=O)O; dTic = O=C(O)[C@H]1Cc2ccccc2CN1; NHBn = c1ccc(CN*)cc1

Assay [1] has as its target T1, human μ opioid receptor (Homo sapiens, UniProt P35372). Description: Stimulation of [35S]GTPγS binding, μ. The following applies: for Emax: read-out: Agonism μ Emax (%). The class given is biochemical. Background: GTPγS resists hydrolysis and so accumulates on activated G proteins.
For assay [2], the target named is T2, human δ opioid receptor (Homo sapiens, UniProt P41143). In words: Stimulation of [35S]GTPγS binding, δ. Format: biochemical. The following applies: for Emax: read-out: Agonism δ Emax (%).
Assay [3] deals with T1, human μ opioid receptor. In words: Inhibition of DAMGO-stimulated [35S]GTPγS binding, μ. Format: biochemical. The following applies: for Antagonism μ Imax (%): in presence of 200 nM DAMGO, NI = No inhibition.
Assay [4] deals with T2, human δ opioid receptor. In words: Inhibition of SNC 80-stimulated [35S]GTPγS binding, δ. The following applies: in presence of 10 nM SNC 80; NI = No inhibition. Format: biochemical.
The next assay has as its system GPI. The following applies: read-out: GPI EC50; cited from earlier work.
For another assay, the system named is MVD. The following applies: read-out: MVD EC50; cited from earlier work.

T2 sequence (P41143 whole entry): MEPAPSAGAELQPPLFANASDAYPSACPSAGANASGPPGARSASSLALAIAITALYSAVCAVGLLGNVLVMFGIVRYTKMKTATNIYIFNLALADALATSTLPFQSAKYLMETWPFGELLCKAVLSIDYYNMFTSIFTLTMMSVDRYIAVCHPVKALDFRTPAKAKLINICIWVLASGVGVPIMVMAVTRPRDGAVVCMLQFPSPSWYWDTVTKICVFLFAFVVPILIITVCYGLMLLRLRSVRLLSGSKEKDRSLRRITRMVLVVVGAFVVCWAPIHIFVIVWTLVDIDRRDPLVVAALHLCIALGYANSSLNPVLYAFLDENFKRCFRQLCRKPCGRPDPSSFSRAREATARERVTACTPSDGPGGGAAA
T1 sequence (P35372 whole entry): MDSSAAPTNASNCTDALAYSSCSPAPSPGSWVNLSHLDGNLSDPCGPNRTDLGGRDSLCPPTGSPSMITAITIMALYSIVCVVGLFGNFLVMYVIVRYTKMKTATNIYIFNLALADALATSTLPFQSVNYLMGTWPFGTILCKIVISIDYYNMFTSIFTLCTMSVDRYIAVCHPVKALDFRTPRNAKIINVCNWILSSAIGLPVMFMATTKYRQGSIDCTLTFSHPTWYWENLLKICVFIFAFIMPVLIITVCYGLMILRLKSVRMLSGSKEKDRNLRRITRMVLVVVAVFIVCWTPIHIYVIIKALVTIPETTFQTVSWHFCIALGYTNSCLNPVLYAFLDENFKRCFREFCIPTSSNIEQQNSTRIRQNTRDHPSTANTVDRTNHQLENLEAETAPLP

As a reminder, the EC50 is the midpoint of the concentration-response curve. A word on the Emax: it is the maximal effect, on the per cent scale that the assay sets. Take `Cc1cc(O)cc(C)c1C[C@H](N)C(=O)N1Cc2ccccc2C[C@@H]1C(=O)NCC(=O)NCc1ccccc1` [Compound 2, TFA·H-Dmt-D-Tic-Gly-NH-Bzl] (H-[Dmt]-[dTic]-Gly-NHBn): at human μ opioid receptor [1], the EC50 is 0.9 ± 0.032 nM and the Emax stood at 92 ± 4%. Moreover, on human δ opioid receptor [2], the EC50 is 2.8 ± 0.6 nM and the Emax was determined as 44 ± 6.1%.
With `Cc1cc(O)cc(C)c1C[C@H](N)C(=O)N1Cc2ccccc2C[C@H]1C(=O)NCC(=O)NCc1ccc(Cl)cc1` [Compound 3, TFA·H-Dmt-Tic-Gly-NH-Bzl(pCl)], on human μ opioid receptor [1], the EC50 is 33 ± 2.9 nM and the Emax was 52 ± 5.5%. Besides, at human δ opioid receptor [2], the Emax came out at 4.5 ± 0.85%. Further, the “Antagonism μ Imax (%)” value on human μ opioid receptor [3] came to 43±3.3%. At human δ opioid receptor [4], the “Antagonism δ Imax (%)” value was determined as 93±2.2%.
For orientation: inhibition means the drop in the measured response relative to a control, in per cent. Regarding `Cc1ccc(CNC(=O)CNC(=O)[C@@H]2Cc3ccccc3CN2C(=O)[C@@H](N)Cc2c(C)cc(O)cc2C)cc1` [Compound 4, TFA·H-Dmt-Tic-Gly-NH-Bzl(pMe)], at human μ opioid receptor [1], the EC50 came out at 63 ± 3.5 nM and the Emax was 34 ± 6.4%. Also, at human δ opioid receptor [2], the Emax is 0.4 ± 1.43%. Moreover, the inhibition at 25 µM at human μ opioid receptor [3] (read-out: Antagonism μ inhibition of DAMGO-stimulated [35S]GTPγS binding (%)) was determined as 65 ± 1.1%. Also, at human δ opioid receptor [4], the “Antagonism δ Imax (%)” value turned out to be 86±5.0%.
Turning to `Cc1cc(O)cc(C)c1C[C@H](N)C(=O)N1Cc2ccccc2C[C@H]1C(=O)NCC(=O)NCc1ccc([N+](=O)[O-])cc1` [Compound 5, TFA·H-Dmt-Tic-Gly-NH-Bzl(pNO2)], at human μ opioid receptor [1], the EC50 is 61 ± 15 nM and the Emax amounted to 16 ± 2.5%. Further, on human δ opioid receptor [2], the Emax was 3.1 ± 0.43%. Also, the “Antagonism μ Imax (%)” value at human μ opioid receptor [3] turned out to be 74±6.9%. Moreover, on human δ opioid receptor [4], the “Antagonism δ Imax (%)” value worked out at 79±3.8%.
For the molecule `Cc1cc(O)cc(C)c1C[C@H](N)C(=O)N1Cc2ccccc2C[C@H]1C(=O)NCC(=O)NCc1ccc(N)cc1` [Compound 6, 2TFA·H-Dmt-Tic-Gly-NH-Bzl(pNH2)], at human δ opioid receptor [2], the Emax came out at 13 ± 1%. In addition, the “Antagonism δ Imax (%)” value on human δ opioid receptor [4] stood at 78±2.7%.
As to `Cc1cc(O)cc(C)c1C[C@H](N)C(=O)N1Cc2ccccc2C[C@H]1C(=O)NCC(=O)NC(c1ccccc1)c1ccccc1` [Compound 7, TFA·H-Dmt-Tic-Gly-NH-Benzhydryl], at human μ opioid receptor [1], a half-maximal response (EC50) required 4.8 ± 0.16 nM and the Emax came out at 45 ± 1.2%. The Emax on human δ opioid receptor [2] was -1.9 ± 0.17%. For the same molecule, the “Antagonism δ Imax (%)” value at human δ opioid receptor [4] was 100±7.4%.
For the molecule `Cc1cc(O)cc(C)c1C[C@H](N)C(=O)N1Cc2ccccc2C[C@H]1C(=O)NCC(=O)N1CCc2ccccc2C1` [Compound 8, TFA·H-Dmt-Tic-Gly-1,2,3,4-tetrahydroisoquinoline], the Emax at human μ opioid receptor [1] was 43 ± 6.6%; on human δ opioid receptor [2], -1.4 ± 0.14%. In addition, the “Antagonism δ Imax (%)” value at human δ opioid receptor [4] is listed as 99±3.3%.
Consider H-Dmt-Tic-Gly-Ph, for which the values for the EC50 in the assay with GPI and in the assay on MVD were 2.57 nM and 3.02 nM, respectively.
